Columns and labels:
Type in all cases: in vivo
rice (Oryza sativa) = assay: Test B flooded paddy test; set-up: key: 0 = no effect, 100 = complete control; settings: Flood, 250 g ai/ha applied to paddy water at 2-leaf stage; visually evaluated after 13 to 15 days; scale 0 (no effect) to 100 (complete control)
Method in brief: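 Plants grown to 2-leaf stage; pots flooded 3 cm above soil and compound applied directly into paddy water, depth held throughout. Visual rating against untreated controls after 13 to 15 days in greenhouse, 0 (no effect) to 100 (complete control).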

corn (Zea mays) = assay: Test C preemergence; settings: scale 0 to 100, 0 is no effect, 100 is complete control
Excerpt: (§1) Seeds of plant species selected from blackgrass (Alopecurus myosuroides), Italian ryegrass (Lolium multiflorum), winter wheat (Triticum aestivum), galium (catchweed bedstraw, Galium aparine), corn (Zea mays), large (Lg) crabgrass (Digitaria sanguinalis), giant foxtail (Setaria faberii), johnsongrass (Sorghum halepense), lambsquarters (Chenopodium album), morningglory (Ipomoea coccinea), yellow nutsedge (Cyperus esculentus), pigweed (Amaranthus retroflexus), ragweed (common ragweed, Ambrosia elatior), soybean (Glycine max), barnyardgrass (Echinochloa crus-galli), oilseed rape (Brassica napus), waterhemp (common waterhemp, Amaranthus rudis), and velvetleaf (Abutilon theophrasti) were planted into a blend of loam soil and sand and treated preemergence with test chemicals formulated in a non-phytotoxic solvent mixture which included a surfactant. At the same time, plants selected from these crop and weed species and also chickweed (common chickweed, Stellaria media), kochia (Kochia scoparia), and wild oat (Avena fatua), were planted in pots containing Sunshine Redi-Earth® planting medium comprising spaghnum peat moss, vermiculite, starter nutrients and dolomitic limestone and treated with postemergence applications of test chemicals formulated in the same manner. Plants ranged in height from 2 to 18 cm (1- to 4-leaf stage) for postemergence treatments. Treated plants and controls were maintained in a greenhouse for 13 to 15 days, after which time all species were compared to controls and visually evaluated. Plant response ratings, summarized in Table C, are based on a scale of 0 to 100 where 0 is no effect and 100 is complete control. A dash (-) response means no test result.

[1] = system: large (Lg) crabgrass (Digitaria sanguinalis); assay: Test C preemergence; settings: scale 0 to 100, 0 is no effect, 100 is complete control
Excerpt: as §1

[2] = system: oilseed rape (Brassica napus); assay: Test C preemergence; settings: scale 0 to 100, 0 is no effect, 100 is complete control
Excerpt: as §1

[3] = system: pigweed (Amaranthus retroflexus); assay: Test C preemergence; settings: scale 0 to 100, 0 is no effect, 100 is complete control
Excerpt: as §1

[4] = system: velvetleaf (Abutilon theophrasti); assay: Test C preemergence; settings: scale 0 to 100, 0 is no effect, 100 is complete control
Excerpt: as §1

[5] = system: blackgrass (Alopecurus myosuroides); assay: Test C preemergence; settings: scale 0 to 100, 0 is no effect, 100 is complete control
Excerpt: as §1

[6] = system: waterhemp (common waterhemp, Amaranthus rudis); assay: Test C preemergence; settings: scale 0 to 100, 0 is no effect, 100 is complete control
Excerpt: as §1

[7] = system: ragweed (common ragweed, Ambrosia elatior); assay: Test C preemergence; settings: scale 0 to 100, 0 is no effect, 100 is complete control
Excerpt: as §1

[8] = system: yellow nutsedge (Cyperus esculentus); assay: Test C preemergence; settings: scale 0 to 100, 0 is no effect, 100 is complete control
Excerpt: as §1

[9] = system: winter wheat (Triticum aestivum); assay: Test C preemergence; settings: scale 0 to 100, 0 is no effect, 100 is complete control
Excerpt: as §1

soybean (Glycine max) = assay: Test C preemergence; settings: 31 g ai/ha, scale 0 to 100, 0 is no effect, 100 is complete control
Excerpt: as §1

[10] = system: johnsongrass (Sorghum halepense); assay: Test C preemergence; settings: scale 0 to 100, 0 is no effect, 100 is complete control
Excerpt: as §1

[11] = system: giant foxtail (Setaria faberii); assay: Test C preemergence; settings: scale 0 to 100, 0 is no effect, 100 is complete control
Excerpt: as §1

[12] = system: galium (catchweed bedstraw, Galium aparine); assay: Test C preemergence; settings: scale 0 to 100, 0 is no effect, 100 is complete control
Excerpt: as §1

[13] = system: Italian ryegrass (Lolium multiflorum); assay: Test C preemergence; settings: scale 0 to 100, 0 is no effect, 100 is complete control
Excerpt: as §1

[14] = system: morningglory (Ipomoea coccinea); assay: Test C preemergence; settings: scale 0 to 100, 0 is no effect, 100 is complete control
Excerpt: as §1

[15] = system: barnyardgrass (Echinochloa crus-galli); assay: Test C preemergence; settings: scale 0 to 100, 0 is no effect, 100 is complete control
Excerpt: as §1

[16] = system: lambsquarters (Chenopodium album); assay: Test C preemergence; settings: scale 0 to 100, 0 is no effect, 100 is complete control
Excerpt: as §1

O=c1cccc(Oc2ncc(Cl)cn2)n1-c1ccc(C(F)(F)F)cc1 [Compound 10]
Plant response rating, Rice (rice (Oryza sativa)): 20
Plant response rating, Corn (corn (Zea mays); 16 g ai/ha): 0
Plant response rating, Corn (corn (Zea mays); 31 g ai/ha): 0
Plant response rating, Corn (corn (Zea mays); 62 g ai/ha): 10
Plant response rating, Corn (corn (Zea mays); 125 g ai/ha): 5
Plant response rating, Crabgrass, Large ([1]; 16 g ai/ha): 75
Plant response rating, Crabgrass, Large ([1]; 31 g ai/ha): 98
Plant response rating, Crabgrass, Large ([1]; 62 g ai/ha): 100
Plant response rating, Crabgrass, Large ([1]; 125 g ai/ha): 100
Plant response rating, Oilseed Rape ([2]; 16 g ai/ha): 0
Plant response rating, Oilseed Rape ([2]; 31 g ai/ha): 10
Plant response rating, Oilseed Rape ([2]; 62 g ai/ha): 70
Plant response rating, Oilseed Rape ([2]; 125 g ai/ha): 80
Plant response rating, Pigweed ([3]; 16 g ai/ha): 55
Plant response rating, Pigweed ([3]; 31 g ai/ha): 65
Plant response rating, Pigweed ([3]; 62 g ai/ha): 100
Plant response rating, Pigweed ([3]; 125 g ai/ha): 100
Plant response rating, Velvetleaf ([4]; 16 g ai/ha): 0
Plant response rating, Velvetleaf ([4]; 31 g ai/ha): 20
Plant response rating, Velvetleaf ([4]; 62 g ai/ha): 40
Plant response rating, Velvetleaf ([4]; 125 g ai/ha): 55
Plant response rating, Blackgrass ([5]; 16 g ai/ha): 15
Plant response rating, Blackgrass ([5]; 31 g ai/ha): 60
Plant response rating, Blackgrass ([5]; 62 g ai/ha): 95
Plant response rating, Blackgrass ([5]; 125 g ai/ha): 95
Plant response rating, Waterhemp ([6]; 16 g ai/ha): 70
Plant response rating, Waterhemp ([6]; 31 g ai/ha): 95
Plant response rating, Waterhemp ([6]; 62 g ai/ha): 100
Plant response rating, Waterhemp ([6]; 125 g ai/ha): 100
Plant response rating, Ragweed ([7]; 16 g ai/ha): 35
Plant response rating, Ragweed ([7]; 31 g ai/ha): 25
Plant response rating, Ragweed ([7]; 62 g ai/ha): 25
Plant response rating, Ragweed ([7]; 125 g ai/ha): 65
Plant response rating, Nutsedge, Yellow ([8]; 16 g ai/ha): 0
Plant response rating, Nutsedge, Yellow ([8]; 31 g ai/ha): 0
Plant response rating, Nutsedge, Yellow ([8]; 62 g ai/ha): 0
Plant response rating, Nutsedge, Yellow ([8]; 125 g ai/ha): 0
Plant response rating, Wheat ([9]; 16 g ai/ha): 0
Plant response rating, Wheat ([9]; 31 g ai/ha): 0
Plant response rating, Wheat ([9]; 62 g ai/ha): 5
Plant response rating, Wheat ([9]; 125 g ai/ha): 5
Plant response rating, Soybean (soybean (Glycine max)): 20
Plant response rating, Johnsongrass ([10]; 16 g ai/ha): 0
Plant response rating, Johnsongrass ([10]; 31 g ai/ha): 5
Plant response rating, Johnsongrass ([10]; 62 g ai/ha): 35
Plant response rating, Johnsongrass ([10]; 125 g ai/ha): 70
Plant response rating, Foxtail, Giant ([11]; 16 g ai/ha): 55
Plant response rating, Foxtail, Giant ([11]; 31 g ai/ha): 90
Plant response rating, Foxtail, Giant ([11]; 62 g ai/ha): 100
Plant response rating, Foxtail, Giant ([11]; 125 g ai/ha): 100
Plant response rating, Galium ([12]; 16 g ai/ha): 0
Plant response rating, Galium ([12]; 31 g ai/ha): 80
Plant response rating, Galium ([12]; 62 g ai/ha): 60
Plant response rating, Galium ([12]; 125 g ai/ha): 98
Plant response rating, Ryegrass, Italian ([13]; 16 g ai/ha): 0
Plant response rating, Ryegrass, Italian ([13]; 31 g ai/ha): 10
Plant response rating, Ryegrass, Italian ([13]; 62 g ai/ha): 90
Plant response rating, Ryegrass, Italian ([13]; 125 g ai/ha): 85
Plant response rating, Morningglory ([14]; 16 g ai/ha): 0
Plant response rating, Morningglory ([14]; 31 g ai/ha): 0
Plant response rating, Morningglory ([14]; 62 g ai/ha): 15
Plant response rating, Morningglory ([14]; 125 g ai/ha): 55
Plant response rating, Barnyardgrass ([15]; 16 g ai/ha): 15
Plant response rating, Barnyardgrass ([15]; 31 g ai/ha): 55
Plant response rating, Barnyardgrass ([15]; 62 g ai/ha): 75
Plant response rating, Barnyardgrass ([15]; 125 g ai/ha): 98
Plant response rating, Lambsquarters ([16]; 16 g ai/ha): 35
Plant response rating, Lambsquarters ([16]; 31 g ai/ha): 25
Plant response rating, Lambsquarters ([16]; 62 g ai/ha): 35
Plant response rating, Lambsquarters ([16]; 125 g ai/ha): 75

Source: patent US9963442B2, “Pyridones as herbicides” (E I DU PONT DE NEMOURS AND COMPANY, priority 2014, dated 2018)
